Reference: the supplement of paper PMC11923942

What was measured:
[1] = GC retention time (DB-5MS, GC-APCI); higher = later elution
Procedure: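 Standards of hydrophobic organic contaminants were analysed by GC-APCI (positive mode, dry or wet source conditions) coupled to cyclic ion mobility-QTOF MS. CCS was measured for the base ion (sometimes a fragment ion) in N2 drift gas (one-pass mode, calibrated with a Waters 22-compound mix). 5 mL/min).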

[2] = collision cross section (N2, base ion); higher = larger ion cross section
Procedure: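 Standards of hydrophobic organic contaminants were analysed by GC-APCI (positive mode, dry or wet source conditions) coupled to cyclic ion mobility-QTOF MS. CCS was measured for the base ion (sometimes a fragment ion) in N2 drift gas (one-pass mode, calibrated with a Waters 22-compound mix).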

Structure (SMILES)	GC retention time [1] [min]	collision cross section [2] [Å²]
ClC1C(Cl)C(Cl)C(Cl)C(Cl)C1Cl (stereo unspecified) [γ-Hexachlorocyclohexane] (APCI source condition: Dry, base ion: [M-H2Cl3]+)	15.2	137.38
Clc1cc(Cl)c(Cl)c(Cl)c1Cl [Pentachlorobenzene] (APCI source condition: Dry, base ion: M+.)	12.4	135.24
Clc1c(Cl)c(Cl)c(Cl)c(Cl)c1Cl [Hexachlorobenzene] (APCI source condition: Dry, base ion: M+.)	14.6	135.29
Clc1ccccc1-c1ccccc1Cl [PCB 4] (APCI source condition: Dry, base ion: M+.)	13.6	137.64
Brc1ccc(Oc2cc(Br)ccc2Br)c(Br)c1 [PBDE 49] (APCI source condition: Dry, base ion: M+.)	21.8	163.07
Brc1ccc(Oc2ccc(Br)cc2Br)c(Br)c1 [PBDE 47] (APCI source condition: Dry, base ion: M+.)	22.2	162.71
Brc1ccc(Oc2cc(Br)c(Br)cc2Br)c(Br)c1 [PBDE 99] (APCI source condition: Dry, base ion: M+.)	24.2	169.31
O=P(OCCCl)(OCCCl)OCCCl [Tris(2-chloroethyl) phosphate] (APCI source condition: Wet, base ion: [M+H]+)	15.1	145.65
c1ccc2c(c1)-c1cccc3c1c-2cc1ccccc13 [Benzo(b)fluoranthene] (APCI source condition: Dry, base ion: M+.)	24.2	145.46
Brc1cc(Br)c(Oc2cc(Br)c(Br)cc2Br)c(Br)c1 [PBDE 154] (APCI source condition: Dry, base ion: M+.)	25.4	178.18
c1ccc2c(c1)-c1ccc3ccc4cccc5cc-2c1c3c45 [Indeno(1,2,3-cd)pyrene] (APCI source condition: Dry, base ion: M+.)	27.7	148.24
Clc1ccc(Cl)c(-c2ccccc2Cl)c1 [PCB 18] (APCI source condition: Dry, base ion: M+.)	15.4	140.01
Clc1cc(Cl)c(-c2c(Cl)ccc(Cl)c2Cl)cc1Cl [PCB 149] (APCI source condition: Dry, base ion: M+.)	19.8	158.29
ClC(Cl)=C(c1ccc(Cl)cc1)c1ccc(Cl)cc1 [4,4'-DDE] (APCI source condition: Dry, base ion: M+.)	19.3	159.06
ClC(Cl)=C(c1ccc(Cl)cc1)c1ccccc1Cl [2,4'-DDE] (APCI source condition: Dry, base ion: M+.)	18.7	154.54
Brc1cc(Oc2c(Br)cc(Br)c(Br)c2Br)cc(Br)c1Br [PBDE 191] (APCI source condition: Dry, base ion: M+.)	29	187.91
O=S1OC[C@@H]2[C@H](CO1)[C@@]1(Cl)C(Cl)=C(Cl)[C@]2(Cl)C1(Cl)Cl (stereo partly drawn) [α-Endosulfan] (APCI source condition: Wet, base ion: [M+H]+)	18.9	163.16
Clc1ccc(-c2cc(Cl)c(Cl)cc2Cl)cc1Cl [PCB 118] (APCI source condition: Dry, base ion: M+.)	19.9	156.06
Brc1cc(Br)c(Oc2cc(Br)c(Br)c(Br)c2Br)c(Br)c1 [PBDE 182] (APCI source condition: Dry, base ion: M+.)	28.4	185.51
C=C(Br)COc1c(Br)cc(Br)cc1Br [2-Bromoallyl 2,4,6-tribromophenyl ether] (APCI source condition: Dry, base ion: [M-Br]+)	18.2	143.35
ClC1C(Cl)C(Cl)C(Cl)C(Cl)C1Cl (stereo not drawn) [α-Hexachlorocyclohexane] (APCI source condition: Dry, base ion: [M-H2Cl3]+)	14.5	137.25
CCCCCCCCCCCCCCCCC(F)(F)C(F)(F)C(F)(F)C(F)(F)C(F)(F)C(F)(F)C(F)(F)C(F)(F)C(F)(F)C(F)(F)C(F)(F)C(F)(F)F [1-(Perfluorododecyl)hexadecane] (APCI source condition: Dry, base ion: [M-H]+)	18.4	256.66

Structure (SMILES)	GC retention time [1] [min]	collision cross section [2] [Å²]
Clc1ccc(C(c2ccccc2Cl)C(Cl)(Cl)Cl)cc1 (stereo unspecified) [2,4'-DDT] (APCI source condition: Dry, base ion: [M-CCl3]+)	20.2	140.36
Cl[C@H]1[C@H](Cl)[C@@H](Cl)[C@H](Cl)[C@@H](Cl)[C@@H]1Cl [β-Hexachlorocyclohexane] (APCI source condition: Dry, base ion: [M-H2Cl3]+)	15.1	138.19
Brc1cc(Br)c(Oc2c(Br)cc(Br)c(Br)c2Br)cc1Br [PBDE 183] (APCI source condition: Dry, base ion: M+.)	28.2	184.97
Clc1ccc(Cl)c(-c2cc(Cl)ccc2Cl)c1 [PCB 52] (APCI source condition: Dry, base ion: M+.)	17.1	149.21
Clc1ccc(-c2cc(Cl)c(Cl)c(Cl)c2Cl)c(Cl)c1Cl [PCB 170] (APCI source condition: Dry, base ion: M+.)	22.5	165.18
ClC1=C(Cl)C2(Cl)C3C4CC(C5OC45)C3C1(Cl)C2(Cl)Cl (stereo unspecified) [Endrin] (APCI source condition: Wet, base ion: [M+H]+)	19.4	157.95
Brc1c(Br)c(Br)c(Br)c(Br)c1Br [Hexabromobenzene] (APCI source condition: Dry, base ion: M+.)	21.8	135.29
Clc1ccc(C(c2ccc(Cl)cc2)C(Cl)(Cl)Cl)cc1 [4,4'-DDT] (APCI source condition: Dry, base ion: [M-CCl3]+)	20.8	140.31
Clc1cc(Cl)c(-c2c(Cl)c(Cl)cc(Cl)c2Cl)cc1Cl [PCB 187] (APCI source condition: Dry, base ion: M+.)	21.1	165.54
c1ccc2c(c1)-c1cccc3cccc-2c13 [Fluoranthene] (APCI source condition: Dry, base ion: M+.)	18.4	138.02
Brc1cc(Br)c(OCCOc2c(Br)cc(Br)cc2Br)c(Br)c1 [1,2-Bis(2,4,6-tribromophenoxy)ethane] (APCI source condition: Dry, base ion: M+.)	29	186.57
ClC1=C(Cl)[C@]2(Cl)[C@@H]3[C@@H]4C[C@@H]([C@H]5O[C@@H]45)[C@@H]3[C@@]1(Cl)C2(Cl)Cl [Dieldrin] (APCI source condition: Dry, base ion: M+.)	19.8	151.16
c1ccc2c(c1)sc1ccccc12 [Dibenzothiophene] (APCI source condition: Dry, base ion: M+.)	15.2	137.55
CCCCC(CC)COC(=O)c1cc(Br)c(Br)c(Br)c1Br (stereo unspecified) [2-Ethylhexyl-2,3,4,5-tetrabromobenzoate] (APCI source condition: Dry, base ion: C7H3Br4O2+)	24.2	141.48
Clc1cc(Cl)c(-c2cc(Cl)c(Cl)cc2Cl)cc1Cl [PCB 153] (APCI source condition: Dry, base ion: M+.)	20.3	161.05
c1cc2ccc3cccc4ccc(c1)c2c34 [Pyrene] (APCI source condition: Dry, base ion: M+.)	18.9	137.65
c1ccc2cc3c(cc2c1)-c1cccc2cccc-3c12 [Benzo(k)fluoranthene] (APCI source condition: Dry, base ion: M+.)	24.2	145.45
Clc1ccc(Cl)c(-c2c(Cl)cccc2Cl)c1 [PCB 53] (APCI source condition: Dry, base ion: M+.)	16.6	144.4
Brc1ccc(Oc2ccc(Br)c(Br)c2Br)c(Br)c1 [PBDE 85] (APCI source condition: Dry, base ion: M+.)	25	170.22
Clc1ccc(-c2c(Cl)ccc(Cl)c2Cl)cc1Cl [PCB 110] (APCI source condition: Dry, base ion: M+.)	19.4	152.9
Brc1ccc(Oc2ccc(Br)c(Br)c2)c(Br)c1 [PBDE 66] (APCI source condition: Dry, base ion: M+.)	22.5	163.83
